Here are results for 16 compounds from ChEMBL document CHEMBL1150862, “Synthetic derivatives of abietic acid with radical scavenging activity” (J Nat Prod, 2001).

Activity calls are given as the source filed them. No cut-off for these calls is given here.

For this assay, the system named is Radical scavenging activity. The assay can be described thus: Antioxidant activity assessed as DPPH radical scavenging activity by spectrophotometric assay. In kind it is functional. A general note: Loss of DPPH colour is used to gauge radical scavenging.
In the case of `COc1ccc(Nc2cc3c(c([N+](=O)[O-])c2C(C)C)C[C@@H]2[C@](C)(CCC[C@@]2(C)C(=O)O)C3)cc1`, the outcome was Active.

Take `CC(C)c1c(Nc2ccccc2)cc2c(c1N)C[C@@H]1[C@](C)(CCC[C@@]1(C)C(=O)O)C2`: the result was Active.

As to `COc1ccc(Nc2cc3c(c(Nc4ccc(OC)cc4)c2C(C)C)C[C@@H]2[C@](C)(CCC[C@@]2(C)C(=O)O)C3)cc1`, the result was Active.

Consider `CC(C)c1ccc2c(c1Nc1ccccc1)C[C@@H]1[C@](C)(CCC[C@@]1(C)C(=O)O)C2`, for which the outcome was Active.

With `COc1ccccc1Nc1cc2c(cc1C(C)C)C[C@@H]1[C@](C)(CCC[C@@]1(C)C(=O)O)C2`, the result was Active.

Take `COc1ccccc1Nc1cc2c(c(Nc3ccccc3OC)c1C(C)C)C[C@@H]1[C@](C)(CCC[C@@]1(C)C(=O)O)C2`: the outcome was Active.

Turning to `Cc1cc(C(C)(C)C)c(O)c(C(C)(C)C)c1`, the result was Active.

Consider `COc1ccccc1Nc1cc2c(c([N+](=O)[O-])c1C(C)C)C[C@@H]1[C@](C)(CCC[C@@]1(C)C(=O)O)C2`, for which the outcome was Active.

As for `COc1ccccc1Nc1c(C(C)C)ccc2c1C[C@@H]1[C@](C)(CCC[C@@]1(C)C(=O)O)C2`, the result was Active.

`COc1ccc(Nc2c(C(C)C)ccc3c2C[C@@H]2[C@](C)(CCC[C@@]2(C)C(=O)O)C3)cc1`: the outcome was Active.

As for `CC(C)c1cc2c(cc1Nc1ccccc1)C[C@@]1(C)CCC[C@@](C)(C(=O)O)[C@@H]1C2`, the result was Active.

`CC(C)c1c(Nc2ccccc2)cc2c(c1Nc1ccccc1)C[C@@H]1[C@](C)(CCC[C@@]1(C)C(=O)O)C2`: the outcome was Active.

Consider `COc1ccccc1Nc1cc2c(c(N)c1C(C)C)C[C@@H]1[C@](C)(CCC[C@@]1(C)C(=O)O)C2`, for which the result was Active.

In the case of `CC(C)c1c(Nc2ccccc2)cc2c(c1[N+](=O)[O-])C[C@@H]1[C@](C)(CCC[C@@]1(C)C(=O)O)C2`, the result was Active.

For the compound `COc1ccc(Nc2cc3c(c(N)c2C(C)C)C[C@@H]2[C@](C)(CCC[C@@]2(C)C(=O)O)C3)cc1`, the result was Active.

As for `COc1ccc(Nc2cc3c(cc2C(C)C)C[C@@H]2[C@](C)(CCC[C@@]2(C)C(=O)O)C3)cc1`, the result was Active.
